Assay [1] deals with bovine cardiac myofibrils (full-length cardiac myosin ATPase in the native sarcomere) (Bos taurus (Bovine), UniProt Q9BE39). Nature of the assay: Skinned bovine cardiac myofibril ATPase assay (PK/LDH-coupled). The conditions noted are these: Ca2+ activating to 75% of maximal rate. It counts as biochemical. The essentials: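 Inhibition of steady-state ATPase read at 340 nm through a PK/LDH-coupled NADH system (0.5 mM NADH, 1.5 mM PEP). Detergent-skinned bovine cardiac myofibrils, 1 mg/mL, were tested at pH 6.8 in PIPES/MgCl2 with 50 μM ATP and calcium adjusted to give pCa50 or pCa75 activation.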
Chain of bovine cardiac myofibrils (full-length cardiac myosin ATPase in the native sarcomere) (Q9BE39 whole entry): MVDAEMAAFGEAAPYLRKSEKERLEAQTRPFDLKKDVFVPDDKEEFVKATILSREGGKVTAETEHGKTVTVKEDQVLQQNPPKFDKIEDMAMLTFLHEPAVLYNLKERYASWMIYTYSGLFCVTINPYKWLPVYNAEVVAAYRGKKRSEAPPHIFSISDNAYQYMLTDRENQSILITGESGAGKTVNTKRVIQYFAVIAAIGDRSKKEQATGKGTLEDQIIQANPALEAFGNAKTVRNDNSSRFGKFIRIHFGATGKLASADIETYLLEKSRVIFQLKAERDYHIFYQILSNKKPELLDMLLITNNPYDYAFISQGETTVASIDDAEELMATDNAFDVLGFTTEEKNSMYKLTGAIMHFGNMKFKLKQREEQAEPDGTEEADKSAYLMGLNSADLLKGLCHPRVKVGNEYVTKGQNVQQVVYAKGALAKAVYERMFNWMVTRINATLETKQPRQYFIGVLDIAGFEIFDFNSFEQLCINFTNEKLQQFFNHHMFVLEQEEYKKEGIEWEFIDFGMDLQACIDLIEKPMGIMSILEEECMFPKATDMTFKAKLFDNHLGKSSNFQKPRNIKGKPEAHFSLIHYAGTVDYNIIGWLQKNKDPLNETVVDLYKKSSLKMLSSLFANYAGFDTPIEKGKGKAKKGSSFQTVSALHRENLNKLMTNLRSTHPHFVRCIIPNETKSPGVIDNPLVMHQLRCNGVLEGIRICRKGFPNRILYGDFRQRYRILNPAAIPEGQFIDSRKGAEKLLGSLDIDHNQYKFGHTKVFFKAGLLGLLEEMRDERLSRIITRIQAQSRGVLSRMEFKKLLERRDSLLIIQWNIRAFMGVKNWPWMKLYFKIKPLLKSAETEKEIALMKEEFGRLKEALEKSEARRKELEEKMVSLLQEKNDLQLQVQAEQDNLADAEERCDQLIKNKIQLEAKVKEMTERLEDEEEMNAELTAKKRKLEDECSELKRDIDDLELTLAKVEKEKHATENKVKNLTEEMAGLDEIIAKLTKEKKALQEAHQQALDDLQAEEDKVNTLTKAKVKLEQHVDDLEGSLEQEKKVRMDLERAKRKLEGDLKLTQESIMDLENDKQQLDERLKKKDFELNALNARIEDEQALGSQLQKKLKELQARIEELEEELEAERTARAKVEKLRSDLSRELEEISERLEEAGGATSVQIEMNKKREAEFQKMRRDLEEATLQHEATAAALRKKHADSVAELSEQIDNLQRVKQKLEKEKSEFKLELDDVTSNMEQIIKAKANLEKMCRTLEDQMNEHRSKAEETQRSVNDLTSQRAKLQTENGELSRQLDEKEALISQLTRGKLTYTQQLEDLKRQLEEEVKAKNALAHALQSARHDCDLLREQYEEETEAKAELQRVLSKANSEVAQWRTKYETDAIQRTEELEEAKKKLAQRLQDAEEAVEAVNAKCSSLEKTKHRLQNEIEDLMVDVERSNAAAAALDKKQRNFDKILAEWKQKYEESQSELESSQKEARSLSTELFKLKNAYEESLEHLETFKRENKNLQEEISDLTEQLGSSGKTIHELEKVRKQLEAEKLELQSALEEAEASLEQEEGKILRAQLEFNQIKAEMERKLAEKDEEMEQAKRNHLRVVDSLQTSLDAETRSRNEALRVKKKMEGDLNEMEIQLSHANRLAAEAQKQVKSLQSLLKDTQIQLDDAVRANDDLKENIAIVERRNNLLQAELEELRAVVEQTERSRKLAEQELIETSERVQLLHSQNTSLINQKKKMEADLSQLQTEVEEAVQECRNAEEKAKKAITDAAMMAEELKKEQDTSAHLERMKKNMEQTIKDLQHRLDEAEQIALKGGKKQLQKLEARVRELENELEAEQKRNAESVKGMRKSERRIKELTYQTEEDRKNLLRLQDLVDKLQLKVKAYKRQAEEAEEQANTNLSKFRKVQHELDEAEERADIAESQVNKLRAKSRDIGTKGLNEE
Chain of bovine cardiac myofibrils (full-length cardiac myosin ATPase in the native sarcomere) (P85100 whole entry partner): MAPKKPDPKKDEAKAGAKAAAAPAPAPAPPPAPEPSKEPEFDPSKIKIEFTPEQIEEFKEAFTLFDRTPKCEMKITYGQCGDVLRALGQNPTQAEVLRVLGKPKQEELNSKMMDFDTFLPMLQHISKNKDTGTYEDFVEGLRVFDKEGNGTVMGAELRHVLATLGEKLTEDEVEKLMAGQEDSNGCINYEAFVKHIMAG
Chain of bovine cardiac myofibrils (full-length cardiac myosin ATPase in the native sarcomere) (Q3SZE5 whole entry partner): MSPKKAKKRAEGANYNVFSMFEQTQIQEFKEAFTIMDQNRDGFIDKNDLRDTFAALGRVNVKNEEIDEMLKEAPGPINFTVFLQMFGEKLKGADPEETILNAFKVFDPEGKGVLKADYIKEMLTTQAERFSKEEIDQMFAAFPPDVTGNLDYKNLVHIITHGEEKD

For assay [2], the system named is R403Q mice (alpha cardiac myosin heavy chain mutation, familial hypertrophic cardiomyopathy model). Nature of the assay: Longitudinal echocardiography in R403Q mouse model of HCM. The assay is classed as in vivo. Conditions: compound formulated in chow for 24 weeks, echocardiography every 4 weeks, versus untreated R403Q mice. The protocol: Assessment over time of in vivo cardiac function by echocardiography was performed using a previously reported mouse model of familial hypertrophic cardiomyopathy, which was generated by an arginine to glutamine mutation at residue 403 (R403Q) of the alpha cardiac myosin heavy chain (MHC) gene (Geisterfer-Lowrance et al., Science. 1996 May 3; 272(5262):731-4). Cardiac dysfunction, fibrosis, and measures of cardiac hypertrophy (including ventricular wall thickness) increase with age in this mouse model (Geisterfer-Lowrance, supra; Jiang et al., Science. 2013, 342(6154):111-4).
R403Q mice received vehicle or Compound 142 formulated in chow for 24 weeks. Longitudinal echocardiography measurements were performed every 4 weeks. Echocardiography measurements were taken with mice under isoflurane (1-3%) anesthesia. 2-D M-mode images of the left ventricle were acquired in short-axis view. In vivo fractional shortening was determined by M-mode image analysis with the following calculation: ((End diastolic diameter−end systolic diameter)/end diastolic diameter×100).

Assay [3] deals with rat cardiac contractility (left ventricle fractional shortening). Nature of the assay: Echocardiography of acute effect on rat cardiac contractility, oral gavage. It counts as in vivo, Sprague Dawley rats. Conditions: for inhibition in vivo at 6 mg/kg: oral gavage. In a few lines:
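Male Sprague Dawley rats under isoflurane (1-3%) anesthesia had three pre-dose baseline M-mode images of the left ventricle (parasternal long-axis view) taken at 1 minute intervals. Compound in 0.5% HPMC 2910: 0.1% Tween 80 suspension was then given as a single oral gavage dose (5 mL/kg). Fractional shortening was measured at chosen time points over 24 hours, with plasma concentrations sampled concurrently.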

Assay [4] has as its system Dahl Salt Sensitive (DSS) rats, hypertension-induced model of heart failure with preserved ejection fraction. Nature of the assay: Fibrosis reduction in Dahl Salt Sensitive rat model of cardiac hypertrophy. The conditions noted are these: high-salt diet fed DSS rats, compound formulated in chow for 6 weeks, perivascular and interstitial cardiac tissue. The assay is classed as in vivo. Here is the method: Assessment of fibrosis reduction was performed using Dahl Salt Sensitive (DSS) rats, a previously reported hypertension-induced rat model of heart failure with preserved ejection fraction (Fillmore et al., Mol Med. 2018, 24(1):3; Dahl et al., J Exp Med. 1962, 115:1173-90).
DSS rats received vehicle or Compound 142 formulated in low or high salt chow for 6 weeks. Perivascular and interstitial cardiac tissue samples were imaged and assayed for % cardiac fibrosis.

Read-outs that look alike come from different tables or passages of the source.

On to `CC(C)c1nc(-c2ccc3c(c2)CC[C@H]3NC(=O)c2nnn(C)n2)no1` [Compound 142, (R)—N-(5-(5-isopropyl-1,2,4-oxadiazol-3-yl)-2,3-dihydro-1H-inden-1-yl)-2-methyl-2H-tetrazole-5-carboxamide], for which the “CDMF75 IC15” value in assay [1] (concentration giving 15% inhibition) was 0.5 µM. Moreover, the half-maximal inhibitory concentration (IC50) (commonly the point on the concentration scale where inhibition reaches its midpoint) in assay [1] (read-out: CDMF75 IC50) was 2400 nM; in assay [3] (Rattus norvegicus, oral dosing, plasma concentration at which fractional shortening is 50% of pre-dose baseline, estimated) it was 2900 nM. The “septal and left ventricular posterior wall thickness” value in assay [2] is “attenuated increases in septal and left ventricular posterior wall thickness”. Besides, the inhibition in vivo at 6 mg/kg in assay [3] (Rattus norvegicus, 1 h, 1-2 h post dose, read-out: FS (% reduction from baseline) at 1-2 h post dose (Mean ± S.D.)) was determined as 40 ± 9%; in assay [3] (Rattus norvegicus, 4 h post dose, read-out: FS (% reduction from baseline) at 4 h post dose (Mean ± S.D.)), 18 ± 11%. For the same compound, the IC10 (in general, the concentration needed for an effect of 10%) in assay [3] (oral dosing, plasma concentration at which, estimated) was 0.7 µM. Further, the “% cardiac fibrosis” value in assay [4] was “attenuated increases in fibrosis”.

These data come from patent US12065436B2, “Cardiac sarcomere inhibitors” (Cytokinetics, Inc., priority 2018, dated 2024).
